# According to patent US20220267356A1, “ARGINASE INHIBITORS AND METHODS OF USE THEREOF” (AstraZeneca AB, priority 2019, published 2022):
# Read-outs that look alike come from different tables or passages of the source.
# Experiments:
# Human Arginase 2 = biological target: T1, Human Arginase 2 (Homo sapiens, UniProt P78540); assay: Human Arginase 2 enzyme inhibition (thioarginine/DTNB absorbance at 412 nm); assay type: biochemical; details: recombinant enzyme 5 nM, 60 min, room temperature
# T1 construct: made in house; host or cells: E. coli
# T1 sequence (P78540 23-354): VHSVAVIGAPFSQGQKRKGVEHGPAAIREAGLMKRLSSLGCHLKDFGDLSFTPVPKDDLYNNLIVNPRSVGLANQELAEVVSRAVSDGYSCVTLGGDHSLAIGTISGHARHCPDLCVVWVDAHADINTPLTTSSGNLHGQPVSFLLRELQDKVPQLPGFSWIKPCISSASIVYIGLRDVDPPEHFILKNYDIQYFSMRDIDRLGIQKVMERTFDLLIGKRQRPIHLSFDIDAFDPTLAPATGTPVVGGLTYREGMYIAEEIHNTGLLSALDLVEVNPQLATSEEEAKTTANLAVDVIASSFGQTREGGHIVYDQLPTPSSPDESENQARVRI
# Excerpt: (§1) The inhibitory effects of Examples 1-26 on the activity of Human Arginase 1 and Arginase 2 activity were quantified by measuring the formation of the thiol group from thioarginine using recombinant Arginase 1 or Arginase 2 produced from E. coli. The thiol group was detected with Ellman's reagent, 5,5′-dithiobis(2-nitrobenzoic acid) (DTNB). DTNB reacts with the thiol to give the mixed disulfide and 2-nitro-5-thiobenzoic acid (TNB) which is quantified by the absorbance of the anion (TNB^2−) at 412 nm.
# (§2) The assays were run in clear 384 well plates (Greiner cat no: 781101). Various concentrations of Examples 1-26 in 300 nL DMSO were dispensed to assay plates using an Echo acoustic dispenser immediately followed by plate sealing and centrifugation. Two pre-mixes were prepared from reagents thawed immediately before addition to assay plates. Pre-mix one comprised human Arginase 1 or human Arginase 2, at a final concentration of 5 nM and 0.5 mM DTNB in assay buffer, 45 mM HEPES pH7.5, brij 35, 0.045% (w/v) and 100 μM MnCl2. Pre-mix two comprised freshly thawed 0.5 mM thioarginine in assay buffer. Fifteen microlitres of pre-mix one was dispensed to assay plates containing Examples 1-9, centrifuged and incubated for 30 minutes at room temperature prior to adding fifteen microlitres of pre-mix two.
# (§3) Assay plates were centrifuged prior to reading absorbance at 412 nm in a Pherastar multi-mode plate reader to collect data at time point 0 (T0). The plates were incubated at room temperature for 60 min prior to reading again to collect data at time point 1 (T1). Data is derived by subtracting the A412 signal measured at T0 (time point 0) from that measured at T1 (time point 1). The data was transformed to % effect using the equation:
# (§4) Compound % effect=100*[(X−min)/(max−min)],
# (§5) where X represents the normalized value for the compound based on the Min (vehicle) and Max (reference compound) inhibition control.
# (§6) The concentration of Examples 1-26 that inhibited the activity by 50% (i.e.the IC50) was calculated by plotting the % effect versus test compound concentration and fitting the data using the Genedata Screener Smart fit algorithm.
# Human Arginase 1 = biological target: T2, Human Arginase 1 (Homo sapiens, UniProt P05089); assay: Human Arginase 1 enzyme inhibition (thioarginine/DTNB absorbance at 412 nm); assay type: biochemical; details: recombinant enzyme 5 nM, 60 min, room temperature
# T2 construct: made in house; host or cells: E. coli
# T2 sequence (P05089 1-322): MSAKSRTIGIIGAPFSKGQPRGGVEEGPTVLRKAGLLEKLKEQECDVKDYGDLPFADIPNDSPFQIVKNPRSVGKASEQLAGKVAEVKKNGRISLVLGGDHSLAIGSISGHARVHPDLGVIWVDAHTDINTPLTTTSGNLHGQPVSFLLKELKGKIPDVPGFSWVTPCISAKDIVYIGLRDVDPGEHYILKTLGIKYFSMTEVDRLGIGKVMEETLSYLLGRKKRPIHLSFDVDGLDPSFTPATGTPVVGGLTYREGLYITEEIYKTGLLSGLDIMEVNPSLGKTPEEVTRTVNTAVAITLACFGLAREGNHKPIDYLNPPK
# Excerpt: as §1, §2, §3, §4, §5, §6
# [1] = Bioavailability / pharmacokinetic study in male rats (IV and PO); assay type: in vivo; details: rat; for Vd: read-out: Vdss; for bioavailability: 5 mg/kg, pro-drug when dosed as pro-drug, PO vs IV; for AUC / Cmax / Tmax: PO 5 mg/kg
# Procedure: Example 14 is a prodrug form of Example 1. Examples 19 to 22 and 24 to 26 are prodrugs of example 18. […] Example 19 was formulated in 0.9% w/v saline pH 4 (adjusted with 1 M HCl) for IV dosing. The formulation was dosed at 2 mg/kg by femoral catheter to two male rats each (170-250 g). Jugular vein catheter serial blood samples were taken at 0.033, 0.083, 0.167, 0.5, 1, 2, 4, 8, and 24 hrs post-dose. For PO dosing, Example 19 was formulated in deionized water pH 4 (adjusted with 1 M HCl) and dosed at 5 mg/kg by oral gavage to two male rats each (170-250 g). Serial blood samples were taken by jugular vein catheter at 0.25, 0.5, 1, 1.5, 2, 3, 4, 8, and 24 hrs post dose. Plasma samples were generated from blood using low speed centrifugation. A single set of calibration standards containing Example 18 and Example 19 were prepared by spiking blank plasma. The samples and standards were extracted by precipitation with two volumes of acetonitrile followed by centrifugation. The results obtained were used to determine the Cl (mL/min/kg), Vdss (L/kg), Cmax (μM), AUC (μM h), tmax (h), and % F for both Example 18 and Example 19. Absolute bioavailability was determined by comparing the PO dose normalized AUC of Example 18 when dosed as Example 19, versus the dose normalized IV AUC of Example 18 when dosed as Example 18. Where appropriate, measured, not nominal, doses were used in the calculation. In an analogous fashion, the same procedure was repeated for Examples 14, 20 to 22, and 24 to 26.
# [2] = pro-drug in plasma when dosed as pro-drug, IV 2 mg/kg
# [3] = pro-drug in plasma when dosed as pro-drug
# [4] = plasma, payload when dosed as payload, IV
IC50 (Human Arginase 2) [nM],IC50 (Human Arginase 1) [nM],"clearance [1, 2] [mL/min/kg]","Vd [1, 2] [L/kg]",bioavailability ([1]; plasma) [%],"AUC [1, 3] [µM·h]","Cmax [1, 3] [nM]","Tmax [1, 3] [min]","clearance [1, 4] [mL/min/kg]","Vd [1, 4] [L/kg]",Compound
5890,5080,,,,,,,,,"CC(=O)NC[C@@H](CCCB(O)O)[C@H](N)C(=O)O [Example 11, (2S,3R)-3-(acetamidomethyl)-2-amino-6-boronohexanoic acid]"
100,30,,,,,,,,,"CC(C)(C)[C@H](N)C(=O)NC[C@H](CCCB(O)O)[C@H](N)C(=O)O [Example 23, (2S,3S)-2-amino-3-(((S)-2-amino-3,3-dimethylbutanamido)methyl)-6-boronohexanoic acid]"
2030,2560,26.6,0.15,,,,,,,"CC(C)[C@H](N)C(=O)N[C@H](C(=O)O)[C@H](CN)CCCB(O)O [Example 26, (2S,3S)-3-(aminomethyl)-2-[[(2S)-2-amino-3-methyl-butanoyl]amino]-6-borono-hexanoic acid]"
65,22,8.4,0.2,6.4,2.9,880,105,,,"NCC(=O)NC[C@H](CCCB(O)O)[C@H](N)C(=O)O [Example 24, (2S,3S)-2-amino-3-((2-aminoacetamido)methyl)-6-boronohexanoic acid]"
150,68,28.3,0.18,,,40,15,,,"C[C@H](N)C(=O)N[C@H](C(=O)O)[C@H](CN)CCCB(O)O [Example 25, (2S,3S)-3-(aminomethyl)-2-[[(2S)-2-aminopropanoyl]amino]-6-borono-hexanoic acid]"
480,220,,,,,,,,,"NCC[C@@H](CCCB(O)O)[C@H](N)C(=O)O [Example 15, (2S,3R)-2-amino-3-(2-aminoethyl)-6-boronohexanoic acid]"
61,39,14.1,0.22,1.5,0.35,230,30,,,"CC[C@H](N)C(=O)NC[C@H](CCCB(O)O)[C@H](N)C(=O)O [Example 21, (2S,3S)-2-amino-3-(((S)-2-aminobutanamido)methyl)-6-boronohexanoic acid]"
410,180,,,,,,,,,"CC[C@H](N)C(=O)NC[C@@H](CCCB(O)O)[C@H](N)C(=O)O [Example 9, (2S,3R)-2-amino-3-(((S)-2-aminobutanamido)methyl)-6-boronohexanoic acid]"
16300,7060,,,,,,,,,"N[C@H](C(=O)O)[C@H](CCCB(O)O)CN1CCCCC1 [Example 3, (2S,3R)-2-amino-6-borono-3-(piperidin-1-ylmethyl)hexanoic acid]"
770,870,,,,,,,,,"CNC[C@@H](CCCB(O)O)[C@H](N)C(=O)O [Example 4, (2S,3R)-2-amino-6-borono-3-((methylamino)methyl)hexanoic acid]"
140,9,12.5,0.21,5.1,1.25,440,45,,,"C[C@H](N)C(=O)NC[C@H](CCCB(O)O)[C@H](N)C(=O)O [Example 20, (2S,3S)-2-amino-3-(((S)-2-aminopropanamido)methyl)-6-boronohexanoic acid]"
3900,2180,46.1,0.47,,,130,15,,,"C[C@H](N)C(=O)N[C@H](C(=O)O)[C@@H](CN)CCCB(O)O [Example 14, (2S,3R)-3-(aminomethyl)-2-((S)-2-aminopropanamido)-6-boronohexanoic acid]"
4310,2090,,,,,,,,,"CN(C)C[C@@H](CCCB(O)O)[C@H](N)C(=O)O [Example 5, (2S,3R)-2-amino-6-borono-3-((dimethylamino)methyl)hexanoic acid]"
100,49,13.1,0.2,4.5,0.92,450,60,,,"CC[C@H](C)[C@H](N)C(=O)NC[C@H](CCCB(O)O)[C@H](N)C(=O)O [Example 22, (2S,3S)-2-amino-3-(((2S,3S)-2-amino-3-methylpentanamido)methyl)-6-boronohexanoic acid]"
81,39,,,,,,,8.26,0.46,"NC[C@@H](CCCB(O)O)[C@H](N)C(=O)O [Example 1, (2S,3R)-2-amino-3-(aminomethyl)-6-boronohexanoic acid]"
9460,13200,,,,,,,,,"CC(C)[C@H](N)C(=O)N[C@H](C(=O)O)[C@@H](CN)CCCB(O)O [Example 13, (2S,3R)-2-((S)-2-Amino-3-methylbutanamido)-3-(aminomethyl)-6-boronohexanoic acid]"
1080,400,,,,,,,,,"CN[C@H](C(=O)O)[C@@H](CN)CCCB(O)O [Example 12, (2S,3R)-3-(aminomethyl)-6-borono-2-(methylamino)hexanoic acid]"
490,150,,,,,,,,,"CC(C)[C@H](N)C(=O)NC[C@@H](CCCB(O)O)[C@H](N)C(=O)O [Example 8, (2S,3R)-2-amino-3-(((S)-2-amino-3-methylbutanamido)methyl)-6-boronohexanoic acid]"
> 100000,34200,,,,,,,,,"CNC(=O)[C@@H](CCCB(O)O)[C@H](N)C(=O)O [Example 17, (2S,3S)-2-amino-6-borono-3-(methylcarbamoyl)hexanoic acid]"
5580,2730,,,,,,,,,"NC(=O)NC[C@@H](CCCB(O)O)[C@H](N)C(=O)O [Example 7, (2S,3R)-2-amino-6-borono-3-(ureidomethyl)hexanoic acid]"
360,160,,,,,,,,,"C[C@H](N)C(=O)NC[C@@H](CCCB(O)O)[C@H](N)C(=O)O [Example 10, (2S,3R)-2-amino-3-(((S)-2-aminopropanamido)methyl)-6-boronohexanoic acid]"
85200,38600,,,,,,,,,"N[C@H](C(=O)O)[C@H](CCCB(O)O)CN1CCOCC1 [Example 2, (2S,3R)-2-amino-6-borono-3-(morpholinomethyl)hexanoic acid]"
54400,19200,,,,,,,,,"NC(=O)[C@@H](CCCB(O)O)[C@H](N)C(=O)O [Example 16, (2S,3S)-2-amino-6-borono-3-carbamoylhexanoic acid]"
